Assay results: PubChem BioAssay AID248 (DTP/NCI, 2004)
“And” between values parts separate entries of the source, which are not always exact repeats. Equal entries are not always repeated. Inconclusive results and toxic doses are left out. Rule as the data show it: active = T/C of 150% or more; inactive = T/C below 125%.

System: L1210 leukemia ip in BDF1 mice, survival T/C
Test: NCI In Vivo Anticancer Drug Screen. Data for tumor model L1210 Leukemia (intraperitoneal) in B6D2F1 (BDF1) mice
Conditions: endpoint: mean survival time, higher = longer survival
Procedure, shortened: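 Read-out is survival time, reported as the treated-group measurement over the vehicle-control measurement.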

[1] = dose: 100.0 mg/kg/injection, schedule: Q01DX001 (ip), vehicle: Klucel (hydroxypropylcellulose) (HPC)
[2] = dose: 100.0 mg/kg/injection, schedule: Q01DX009 (ip), vehicle: Klucel (hydroxypropylcellulose) (HPC)
[3] = dose: 100.0 mg/kg/injection, schedule: Q04DX003 (ip), vehicle: Klucel (hydroxypropylcellulose) (HPC)
[4] = dose: 200.0 mg/kg/injection, schedule: Q01DX001 (ip), vehicle: Klucel (hydroxypropylcellulose) (HPC)
[5] = dose: 200.0 mg/kg/injection, schedule: Q04DX003 (ip), vehicle: Klucel (hydroxypropylcellulose) (HPC)
[6] = dose: 400.0 mg/kg/injection, schedule: Q01DX001 (ip), vehicle: Klucel (hydroxypropylcellulose) (HPC)
[7] = dose: 400.0 mg/kg/injection, schedule: Q04DX003 (ip), vehicle: Klucel (hydroxypropylcellulose) (HPC)
[8] = dose: 50.0 mg/kg/injection, schedule: Q01DX009 (ip), vehicle: saline
[9] = dose: 100.0 mg/kg/injection, schedule: Q04DX002 (ip), vehicle: Klucel (hydroxypropylcellulose) (HPC)

Measured: T/C

NC(N)=N/N=C(/CCC(=O)O)C(=O)O
inactive: dose: 15.0 mg/kg/injection, schedule: Q01DX Z (ip), vehicle: carboxymethylcellulose (CMC) 100 % of control | dose: 30.0 mg/kg/injection, schedule: Q01DX Z (ip), vehicle: carboxymethylcellulose (CMC) 107 % of control | dose: 60.0 mg/kg/injection, schedule: Q01DX Z (ip), vehicle: carboxymethylcellulose (CMC) 100 % of control and 104 % of control | dose: 60.0 mg/kg/injection, schedule: Q01DX Z (oral), vehicle: carboxymethylcellulose (CMC) 104 % of control | dose: 60.0 mg/kg/injection, schedule: Q01DX Z (oral), vehicle: saline 95 % of control | dose: 120.0 mg/kg/injection, schedule: Q01DX Z (ip), vehicle: carboxymethylcellulose (CMC) 101 % of control and 106 % of control | dose: 120.0 mg/kg/injection, schedule: Q01DX Z (oral), vehicle: carboxymethylcellulose (CMC) 98 % of control | dose: 120.0 mg/kg/injection, schedule: Q01DX Z (oral), vehicle: saline 96 % of control | dose: 240.0 mg/kg/injection, schedule: Q01DX Z (ip), vehicle: carboxymethylcellulose (CMC) 98 % of control | dose: 240.0 mg/kg/injection, schedule: Q01DX Z (oral), vehicle: carboxymethylcellulose (CMC) 107 % of control | dose: 240.0 mg/kg/injection, schedule: Q01DX Z (oral), vehicle: saline 98 % of control | dose: 480.0 mg/kg/injection, schedule: Q01DX Z (oral), vehicle: carboxymethylcellulose (CMC) 98 % of control | dose: 480.0 mg/kg/injection, schedule: Q01DX Z (oral), vehicle: saline 98 % of control | dose: 960.0 mg/kg/injection, schedule: Q01DX Z (oral), vehicle: carboxymethylcellulose (CMC) 98 % of control and 113 % of control | dose: 960.0 mg/kg/injection, schedule: Q01DX Z (oral), vehicle: saline 101 % of control

O=S(=O)(Cc1ccccc1)Nc1cccc(S(=O)(=O)OCc2ccccc2)c1
inactive: [1] 102 % of control | [2] 104 % of control | [3] 100 % of control | [4] 98 % of control | dose: 200.0 mg/kg/injection, schedule: Q01DX009 (ip), vehicle: Klucel (hydroxypropylcellulose) (HPC) 95 % of control | [5] 94 % of control | [6] 106 % of control | dose: 400.0 mg/kg/injection, schedule: Q01DX009 (ip), vehicle: Klucel (hydroxypropylcellulose) (HPC) 97 % of control | [7] 92 % of control

O=C(O)c1ccc[nH]1
inactive: dose: 100.0 mg/kg/injection, schedule: Q04DX002 (ip), vehicle: saline with Tween-80 102 % of control | dose: 200.0 mg/kg/injection, schedule: Q04DX002 (ip), vehicle: saline with Tween-80 87 % of control | dose: 400.0 mg/kg/injection, schedule: Q04DX002 (ip), vehicle: saline with Tween-80 98 % of control

Cc1ccc(C(=O)c2ccn[nH]2)cc1
inactive: [1] 93 % of control | [3] 96 % of control | [4] 94 % of control | [5] 93 % of control | [6] 98 % of control | [7] 96 % of control

CC(C)CCCC(C)C1CCC2C3CC=C4CC([S+](C)C)CCC4(C)C3CCC12C (configuration not stated)
inactive: dose: 25.0 mg/kg/injection, schedule: Q01DX009 (ip), vehicle: saline 96 % of control | [8] 96 % of control | dose: 100.0 mg/kg/injection, schedule: Q04DX003 (ip), vehicle: alcohol 98 % of control

O=Cc1cc2cccnc2s1
inactive: [3] 103 % of control | [5] 100 % of control | [7] 100 % of control

COC(OC)c1nc(SC)[nH]c(=O)c1C[N+](C)(C)C
inactive: dose: 100.0 mg/kg/injection, schedule: Q01DX009 (ip), vehicle: saline with Tween-80 102 % of control | dose: 100.0 mg/kg/injection, schedule: Q04DX003 (ip), vehicle: saline with Tween-80 96 % of control | dose: 200.0 mg/kg/injection, schedule: Q01DX009 (ip), vehicle: saline with Tween-80 92 % of control | dose: 200.0 mg/kg/injection, schedule: Q04DX003 (ip), vehicle: saline with Tween-80 94 % of control | dose: 400.0 mg/kg/injection, schedule: Q04DX003 (ip), vehicle: saline with Tween-80 91 % of control

S=c1cc(-c2cccs2)ss1
inactive: [8] 107 % of control | dose: 100.0 mg/kg/injection, schedule: Q01DX009 (ip), vehicle: saline 96 % of control and 91 % of control | dose: 100.0 mg/kg/injection, schedule: Q04DX003 (ip), vehicle: saline 93 % of control | dose: 200.0 mg/kg/injection, schedule: Q01DX009 (ip), vehicle: saline 93 % of control and 91 % of control | dose: 200.0 mg/kg/injection, schedule: Q04DX003 (ip), vehicle: saline 105 % of control | dose: 300.0 mg/kg/injection, schedule: Q01DX009 (ip), vehicle: saline 95 % of control | dose: 400.0 mg/kg/injection, schedule: Q01DX009 (ip), vehicle: saline 98 % of control | dose: 400.0 mg/kg/injection, schedule: Q04DX003 (ip), vehicle: saline 88 % of control

COC(=O)C(CCSC)NC(=O)C(NC(=O)c1cnc2ccccc2n1)C(C)C (configuration not stated)
inactive: dose: 100.0 mg/kg/injection, schedule: Q01DX001 (ip), vehicle: carboxymethylcellulose (CMC) 91 % of control | dose: 200.0 mg/kg/injection, schedule: Q01DX001 (ip), vehicle: carboxymethylcellulose (CMC) 89 % of control | dose: 400.0 mg/kg/injection, schedule: Q01DX001 (ip), vehicle: carboxymethylcellulose (CMC) 96 % of control

CCCCCCC(/C=N\Nc1nnc(N/N=C\C(=C\c2ccccc2)CCCCCC)c2ccccc12)=C/c1ccccc1
inactive: dose: 50.0 mg/kg/injection, schedule: Q01DX001 (ip), vehicle: other 109 % of control | dose: 100.0 mg/kg/injection, schedule: Q01DX001 (ip), vehicle: other 103 % of control | dose: 200.0 mg/kg/injection, schedule: Q01DX001 (ip), vehicle: other 111 % of control | dose: 400.0 mg/kg/injection, schedule: Q01DX001 (ip), vehicle: other 105 % of control

COC(=O)C(=O)CC(=O)c1ccc(Cl)cc1
inactive: [9] 100 % of control | dose: 200.0 mg/kg/injection, schedule: Q04DX002 (ip), vehicle: Klucel (hydroxypropylcellulose) (HPC) 106 % of control | dose: 400.0 mg/kg/injection, schedule: Q04DX002 (ip), vehicle: Klucel (hydroxypropylcellulose) (HPC) 95 % of control

CCCCCCNP(=O)(Oc1ccccc1)Oc1ccccc1
inactive: [3] 97 % of control | [5] 97 % of control | [7] 105 % of control

CN(C)c1ccc(C=Nc2ccc(O)cc2)cc1
inactive: dose: 100.0 mg/kg/injection, schedule: Q01DX001 (ip), vehicle: saline 88 % of control | dose: 200.0 mg/kg/injection, schedule: Q01DX001 (ip), vehicle: saline 94 % of control | dose: 400.0 mg/kg/injection, schedule: Q01DX001 (ip), vehicle: saline 96 % of control

NCCc1nc2ccccc2[nH]1
inactive: dose: 15.0 mg/kg/injection, schedule: Q01DX Z (ip), vehicle: saline 93 % of control | dose: 30.0 mg/kg/injection, schedule: Q01DX Z (ip), vehicle: saline 98 % of control | dose: 60.0 mg/kg/injection, schedule: Q01DX Z (ip), vehicle: saline 97 % of control | dose: 120.0 mg/kg/injection, schedule: Q01DX Z (ip), vehicle: saline 95 % of control | dose: 240.0 mg/kg/injection, schedule: Q01DX Z (ip), vehicle: saline 103 % of control | dose: 480.0 mg/kg/injection, schedule: Q01DX Z (ip), vehicle: saline 108 % of control

COc1cccc(OC)c1OC
inactive: dose: 87.5 mg/kg/injection, schedule: Q01DX009 (ip), vehicle: Klucel (hydroxypropylcellulose) (HPC) 106 % of control | dose: 175.0 mg/kg/injection, schedule: Q01DX009 (ip), vehicle: Klucel (hydroxypropylcellulose) (HPC) 100 % of control | dose: 350.0 mg/kg/injection, schedule: Q01DX009 (ip), vehicle: Klucel (hydroxypropylcellulose) (HPC) 97 % of control

CCOC(=O)c1cnc(SC)nc1N1CCOCC1
inactive: [3] 98 % of control | [5] 93 % of control | [7] 100 % of control

Nc1[nH]c(=S)ncc1-c1ccccc1Cl
inactive: dose: 6.25 mg/kg/injection, schedule: Q01DX009 (ip), vehicle: Klucel (hydroxypropylcellulose) (HPC) 94 % of control | dose: 12.5 mg/kg/injection, schedule: Q01DX009 (ip), vehicle: Klucel (hydroxypropylcellulose) (HPC) 94 % of control | dose: 25.0 mg/kg/injection, schedule: Q01DX009 (ip), vehicle: Klucel (hydroxypropylcellulose) (HPC) 97 % of control | [2] 88 % of control

c1ccc2c(Cc3c4ccccc4cc4ccccc34)c3ccccc3cc2c1
inactive: dose: 25.0 mg/kg/injection, schedule: Q04DX002 (ip), vehicle: Klucel (hydroxypropylcellulose) (HPC) 94 % of control | dose: 50.0 mg/kg/injection, schedule: Q04DX002 (ip), vehicle: Klucel (hydroxypropylcellulose) (HPC) 97 % of control | [9] 90 % of control
